Like-named read-outs stand apart in the source and are kept apart here.

The target of the experiment is T1, P2X7 receptor (Homo sapiens, UniProt Q99572).
T1 construct: endogenous in cells; host or cells: THP-1 cells differentiated with LPS and IFN-γ
T1 sequence (Q99572 1-595): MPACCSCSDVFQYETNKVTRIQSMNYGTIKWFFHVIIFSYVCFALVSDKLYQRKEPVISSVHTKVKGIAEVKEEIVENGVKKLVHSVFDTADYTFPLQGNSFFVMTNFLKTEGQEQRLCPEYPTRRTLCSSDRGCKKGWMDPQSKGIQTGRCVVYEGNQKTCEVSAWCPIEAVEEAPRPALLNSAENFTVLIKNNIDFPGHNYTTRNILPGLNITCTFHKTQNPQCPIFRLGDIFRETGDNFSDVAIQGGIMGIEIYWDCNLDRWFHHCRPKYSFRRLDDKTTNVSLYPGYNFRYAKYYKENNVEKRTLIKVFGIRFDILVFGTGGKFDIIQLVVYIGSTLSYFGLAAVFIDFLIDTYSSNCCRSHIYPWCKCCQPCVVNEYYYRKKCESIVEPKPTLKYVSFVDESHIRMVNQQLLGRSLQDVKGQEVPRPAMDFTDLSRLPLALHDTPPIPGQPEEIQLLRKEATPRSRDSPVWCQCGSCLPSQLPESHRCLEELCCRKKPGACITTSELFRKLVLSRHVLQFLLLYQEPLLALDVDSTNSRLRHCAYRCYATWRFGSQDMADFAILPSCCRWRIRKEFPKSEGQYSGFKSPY
Put plainly: IL-1β release assay in differentiated THP-1 cells stimulated with BzATP (Example 9). Particulars: for inhibition at 0.1 µM: 0.1 μM concentration; for inhibition at 0.1 µM / inhibition at 0.3 µM: read-out: IL-1β % Inhib. @ 0.3 or 0.1 μM; for inhibition at 0.3 µM: 0.3 μM concentration; for IC50: four parameter logistic fit. The experiment is classed as cell-based. The method, then:
The cells are then pretreated for 30 minutes with the compound of interest at the appropriate concentration in RPMI media containing 100 IU/mL penicillin, 100 ug/mL streptomycin. […] 30 uL of cell supernatant is then collected and IL-1β levels determined via ELISA (R&D systems Cat. # HSLB50) according to manufacturer's recommendations using the Tecan Safire plate reader. Background adjusted IL-1β levels of drug treated and non-treated cells are used to calculate the percent inhibition.
The compounds set forth in Table 1 were tested for activity in a cellular model as described herein. […] Measurements were made and IC50 values, presented in Table 2, below, were determined by fitting the data to a four parameter logistic equation using GraphPad Prism software (GraphPad Software, Inc). The equation may be expressed by the following formula:
Y=Bottom+(Top-Bottom)/(1+10̂((Log EC50−X)*HillSlope))
Where X is the logarithm of concentration, Y is the response and Y starts at Bottom and goes to Top with a sigmoid shape.

On to `Cc1cc(-n2ccc3c(NC(=O)CCc4ccccc4Cl)cccc3c2=O)no1` [ID 718], for which the inhibition at 0.1 µM was 0 to 25%.
Turning to `O=C(Cc1ccc(Cl)c(Cl)c1)Nc1cccc2c(=O)n(C3CCNC3)ccc12` (stereo not shown) [ID 815], the inhibition at 0.3 µM was greater than 76%. For the same compound, the IC50 (read-out: IL-1β IC50) was determined as 125 nM.
On to `Cc1ccncc1-n1ccc2c(NC(=O)Cc3ccc(C(F)(F)F)c(F)c3)cccc2c1=O` [ID 856], for which the inhibition at 0.3 µM is greater than 76%. In addition, the IC50 (read-out: IL-1β IC50) is 129 nM.
`O=C(Cc1ccc(Cl)c(C(F)(F)F)c1)Nc1cccc2c(=O)n(-c3cccnc3N3CCOCC3)ccc12` [ID 848]: the inhibition at 0.3 µM was greater than 76%. Also, the IC50 (read-out: IL-1β IC50) was 44.4 nM.
For `Cc1ccncc1-n1ccc2c(NC(=O)CC34CC5CC(CC(C5)C3)C4)cccc2c1=O` [ID 702], the inhibition at 0.3 µM is greater than 76%. Also, where the note is “read-out: IL-1β IC50”, the half-maximal inhibitory concentration (IC50) was 0.177 nM.
Turning to `COc1ncccc1-n1ccc2c(NC(=O)CC34CC5CC(CC(C5)C3)C4)cccc2c1=O` [ID 710], the inhibition at 0.3 µM was greater than 76%. Where the note is “read-out: IL-1β IC50”, the IC50 amounted to 0.246 nM.
For `O=C(CC12CC3CC(CC(C3)C1)C2)Nc1cccc2c(=O)n(-c3cccnc3Oc3ccccc3F)ccc12` [ID 714] the same measures were greater than 76% and 4.09 nM.
Consider `CCOC(=O)N1CCC(n2ccc3c(NC(=O)[C@@]45C[C@@H]6C[C@@H](C[C@@H]4C6)C5)cccc3c2=O)CC1` [ID 797], for which the inhibition at 0.1 µM was 0 to 25%.
For the compound `Cc1cc(-n2ccc3c(NC(=O)CCc4cccc(Cl)c4)cccc3c2=O)no1` [ID 746], the inhibition at 0.1 µM lay within 51 to 75%.
On the same count and under the same terms, the result for `CCOC(=O)N1CCC(n2ccc3c(NC(=O)c4cc5ccccc5o4)cccc3c2=O)CC1` [ID 789] reads 0 to 25%; that for `Cc1ccc(CCC(=O)Nc2cccc3c(=O)n(-c4cc(C)on4)ccc23)c(C)c1` [ID 745], 0 to 25%; that for `COc1ccc(CCC(=O)Nc2cccc3c(=O)n(-c4cc(C)on4)ccc23)cc1` [ID 725], 0 to 25%.
For the compound `Cc1cc(-n2ccc3c(NC(=O)c4ccccc4C)cccc3c2=O)no1` [ID 720], the inhibition at 0.1 µM was 0 to 25%.
As to `Cc1ncccc1-n1ccc2c(NC(=O)Cc3ccc(F)c(Cl)c3)cccc2c1=O` [ID 857], the inhibition at 0.3 µM was greater than 76%. In addition, the IC50 (read-out: IL-1β IC50) amounted to 75.7 nM.
Regarding `Cc1ncccc1-n1ccc2c(NC(=O)Cc3ccc(Cl)c(F)c3)cccc2c1=O` [ID 858], the inhibition at 0.3 µM was greater than 76%. For the same compound, where the note is “read-out: IL-1β IC50”, the IC50 worked out at 32.8 nM.
In the case of `COc1ccccc1CC(=O)Nc1cccc2c(=O)n(-c3cc(C)on3)ccc12` [ID 727], the inhibition at 0.1 µM lay in the range of 0 to 25%.
As for `O=C(Cc1ccc(Cl)c(C(F)(F)F)c1)Nc1cccc2c(=O)n([C@H]3CCNC3)ccc12` [ID 836], the IC50 (read-out: IL-1β IC50) was found to be 16 nM.
On to `O=C(Cc1ccc(Cl)c(F)c1)Nc1cccc2c(=O)n(C3CCC3)ccc12` [ID 897], for which the inhibition at 0.3 µM is greater than 76%. Moreover, the IC50 (read-out: IL-1β IC50) is 24.5 nM.
As for `Cc1cc(-n2ccc3c(NC(=O)CC4CC5CCC4C5)cccc3c2=O)no1` (stereo not shown) [ID 735], the inhibition at 0.1 µM is greater than 76%.
In the case of `O=C(Cc1cccc(C(F)(F)F)c1F)Nc1cccc2c(=O)n(C3CCC3)ccc12` [ID 886], the inhibition at 0.3 µM was greater than 76%. Also, where the note is “read-out: IL-1β IC50”, the IC50 was 20.3 nM.
Take `O=C(Cc1ccc(Cl)c(F)c1)Nc1cccc2c(=O)n(-c3cccnc3F)ccc12` [ID 873]: the inhibition at 0.3 µM was greater than 76%. Moreover, the IC50 (read-out: IL-1β IC50) amounted to 31.4 nM.
As to `Cc1ncccc1-n1ccc2c(NC(=O)Cc3ccc(C(F)(F)F)cc3)cccc2c1=O` [ID 851], the inhibition at 0.3 µM is greater than 76%. Besides, the IC50 (read-out: IL-1β IC50) was 147 nM.
With `CCOC(=O)N1CCC(n2ccc3c(NC(=O)CCc4cccc(OC)c4)cccc3c2=O)CC1` [ID 753], the inhibition at 0.1 µM is 0 to 25%.
Take `CCOC(=O)N1CCC(n2ccc3c(NC(=O)CCc4ccc(OC)cc4)cccc3c2=O)CC1` [ID 776]: the inhibition at 0.1 µM fell in the range of 0 to 25%.
Regarding `Cc1cc(-n2ccc3c(NC(=O)c4ccccc4Cl)cccc3c2=O)no1` [ID 719], the inhibition at 0.1 µM lay in the range of 0 to 25%.
Turning to `O=C(CC1CCCCCC1)Nc1cccc2c(=O)n(C3CCNCC3)ccc12` [ID 819], the inhibition at 0.3 µM is 51 to 75%. Moreover, under “read-out: IL-1β IC50”, the IC50 stood at 206 nM.
With `Cc1cccc(CCC(=O)Nc2cccc3c(=O)n(-c4cc(C)on4)ccc23)c1` [ID 742], the inhibition at 0.1 µM lay within 0 to 25%.
For `CCOC(=O)N1CCC(n2ccc3c(NC(=O)c4cccc(C)c4C)cccc3c2=O)CC1` [ID 765], the inhibition at 0.1 µM lay within 0 to 25%.
For `CCOC(=O)N1CCC(n2ccc3c(NC(=O)c4cc(C)ccc4C)cccc3c2=O)CC1` [ID 767], the inhibition at 0.1 µM fell in the range of 0 to 25%.
`Cc1ccncc1-n1ccc2c(NC(=O)Cc3cccc(C(F)(F)F)c3F)cccc2c1=O` [ID 852]: the inhibition at 0.3 µM is greater than 76%. Besides, the IC50 (read-out: IL-1β IC50) is 43.1 nM.
Regarding `Cc1ccc2c(=O)n([C@H]3CCNC3)ccc2c1NC(=O)Cc1ccc(F)c(C(F)(F)F)c1` [ID 901], the inhibition at 0.3 µM was greater than 76%. Also, for the setting “read-out: IL-1β IC50”, the IC50 came to 11 nM.
As for `O=C(CC1CCCCCC1)Nc1cccc2c(=O)n(C3CC3)ccc12` [ID 878], the inhibition at 0.3 µM is greater than 76%. Further, where the note is “read-out: IL-1β IC50”, the IC50 came out at 2.21 nM.
On to `O=C(Cc1ccc(Cl)cc1F)Nc1cccc2c(=O)n(C3CCC3)ccc12` [ID 888], for which the inhibition at 0.3 µM is greater than 76%. Further, the IC50 (read-out: IL-1β IC50) came out at 14.4 nM.
Consider `CCOC(=O)N1CCC(n2ccc3c(NC(=O)c4cccc(OCC)c4)cccc3c2=O)CC1` [ID 757], for which the inhibition at 0.1 µM lay within 0 to 25%.
Turning to `O=C(CC12CC3CC(CC(C3)C1)C2)Nc1cccc2c(=O)n(C3CN4CCC3CC4)ccc12` (stereo not shown) [ID 850], the inhibition at 0.3 µM was greater than 76%. Moreover, where the note is “IL-1β IC50 (nM)”, the IC50 turned out to be 1.88 nM.
Consider `O=C(Cc1cccc(C(F)(F)F)c1F)Nc1cccc2c(=O)n(C3CC3)ccc12` [ID 885], for which the inhibition at 0.3 µM was greater than 76%. In addition, for the setting “read-out: IL-1β IC50”, the IC50 worked out at 0.322 nM.
With `CCOC(=O)N1CCC(n2ccc3c(NC(=O)Cc4ccc(C)cc4)cccc3c2=O)CC1` [ID 787], the inhibition at 0.1 µM lay in the range of 0 to 25%.
As to `O=C(Cc1ccc(Cl)c(C(F)(F)F)c1)Nc1cccc2c(=O)n(C3CCC3)ccc12` [ID 899], the inhibition at 0.3 µM is greater than 76%. For the same compound, under “read-out: IL-1β IC50”, the IC50 is 6.19 nM.
On to `O=C(CC1(O)CCCCCC1)Nc1cccc2c(=O)n([C@@H]3CCNC3)ccc12` [ID 837], for which the inhibition at 0.3 µM fell in the range of 51 to 75%. The IC50 (read-out: IL-1β IC50) worked out at 275 nM.
Regarding `O=C(Cc1ccc(Cl)c(Cl)c1)Nc1cccc2c(=O)n([C@H]3CCNC3)ccc12` [ID 822], the inhibition at 0.3 µM is greater than 76%. Further, for the setting “read-out: IL-1β IC50”, the IC50 was determined as 31.3 nM.
Turning to `O=C(Cc1ccc(Cl)c(Cl)c1)Nc1cccc2c(=O)n([C@@H]3CCNC3)ccc12` [ID 827], the inhibition at 0.3 µM is greater than 76%. In addition, the IC50 (read-out: IL-1β IC50) stood at 25.5 nM.
For the compound `CCOC(=O)N1CCC(n2ccc3c(NC(=O)c4ccc(CC(C)C)cc4)cccc3c2=O)CC1` [ID 812], the inhibition at 0.1 µM fell in the range of 0 to 25%.
As for `COc1ccc(CC(=O)Nc2cccc3c(=O)n(-c4cc(C)on4)ccc23)cc1C` [ID 741], the inhibition at 0.1 µM lay in the range of 0 to 25%.
With `O=C(CC12CC3CC(CC(C3)C1)C2)Nc1cccc2c(=O)n(-c3cccnc3N3CCOCC3)ccc12` [ID 712], the inhibition at 0.3 µM was greater than 76%. In addition, the IC50 (read-out: IL-1β IC50) came to 0.384 nM.
Consider `Cc1ccc(-n2ccc3c(NC(=O)CC45CC6CC(CC(C6)C4)C5)cccc3c2=O)c(C)n1` [ID 703], for which the inhibition at 0.3 µM was greater than 76%. Moreover, the IC50 (read-out: IL-1β IC50) came out at 13.2 nM.
Turning to `CCOC(=O)N1CCC(n2ccc3c(NC(=O)Cc4ccccc4OCC)cccc3c2=O)CC1` [ID 805], the inhibition at 0.1 µM fell in the range of 0 to 25%.
Consider `O=C(Cc1ccc(Cl)c(C(F)(F)F)c1)Nc1cccc2c(=O)n(C3CCNCC3)ccc12` [ID 818], for which the inhibition at 0.3 µM was greater than 76%. Also, under “read-out: IL-1β IC50”, the IC50 was found to be 99 nM.
In the case of `O=C(Cc1ccc(Cl)c(C(F)(F)F)c1)Nc1cccc2c(=O)n(-c3cccnc3F)ccc12` [ID 870], the inhibition at 0.3 µM was greater than 76%. For the setting “read-out: IL-1β IC50”, the IC50 stood at 4.97 nM.
With `CCOC(=O)N1CCC(n2ccc3c(NC(=O)Cc4cc(OC)ccc4OC)cccc3c2=O)CC1` [ID 780], the inhibition at 0.1 µM lay in the range of 0 to 25%.
Regarding `CCOC(=O)N1CCC(n2ccc3c(NC(=O)Cc4cc(OC)cc(OC)c4)cccc3c2=O)CC1` [ID 791], the inhibition at 0.1 µM was 0 to 25%.
With `CC(C(=O)Nc1cccc2c(=O)n(C3CCNC3)ccc12)c1ccc(Cl)cc1` (stereo not shown) [ID 821], the inhibition at 0.3 µM lay within 51 to 75%. The IC50 (read-out: IL-1β IC50) was 252 nM.
As to `Cc1cc(-n2ccc3c(NC(=O)c4cccc(C)c4Cl)cccc3c2=O)no1` [ID 743], the inhibition at 0.1 µM was in the range of 0 to 25%.
`COc1ccc(-n2ccc3c(NC(=O)CC45CC6CC(CC(C6)C4)C5)cccc3c2=O)cn1` [ID 705]: the inhibition at 0.3 µM was greater than 76%. In addition, where the note is “read-out: IL-1β IC50”, the IC50 amounted to 2.4 nM.

(Values after US20090298825A1, “Bicycloheteroaryl Compounds as P2x7 Modulators and Uses Thereof” (priority 2006, published 2009).)
